Drawing on patent US20060049177A1, “Induction heating cooker” (LG Electronics Inc., priority 2004, published 2006), this text covers IC50, SI and CC50 for 15 compounds.

The subject of one series is HIV-1. Description: in vitro anti-HIV assay: inhibition of HIV-induced cytopathic effect in MT-4 cells (MTT). The format is cell-based. Conditions: for SI: selectivity index = ratio of CC50 to IC50. As to the method:
(§1) A rapid, sensitive and automated assay procedure was used for the in vitro evaluation of anti-HIV agents. An […] T4-cell line, MT-4, which was previously shown (Koyanagi et al., Int. J. Cancer, 36, 445-451, 1985) to be highly susceptible to and permissive for HIV infection, served as the target cell line. Inhibition of the HIV-induced cytopathic effect was used as the end point. The viability of both HIV- and mock-infected cells was assessed spectrophotometrically via the in situ reduction of 3-(4,5-dimethylthiazol-2-yl)-2,5-diphenyltetrazolium bromide (MTT). The 50% […], cytotoxic concentration (CC50 in μM) was defined as the concentration of compound that reduced the absorbance of the mock-infected control sample by 50%. The percent protection achieved by the compound in HIV-infected cells was calculated by the following formula: [formula]
(§2) whereby (ODT)HIV is the optical density measured with a given concentration of the test compound in HIV-infected cells; (ODC)HIV is the optical density measured for the control untreated HIV-infected cells; (ODC)MOCK is the optical density measured for the control untreated mock-infected cells; all optical density values were determined at 540 nm. The dose achieving 50% protection according to the above formula was defined as the 50% inhibitory concentration (IC50 in μM). The ratio of CC50 to IC50 was defined as the selectivity index (SI).
(In general: Cytopathic effects are the visible damage that an infection or toxin causes in cultured cells.)

A further series has as its system MT-4 cells. As to the kind of experiment: cytotoxicity in mock-infected MT-4 cells (MTT). As to the method: as §1, §2
[1] abbreviates: Human immunodeficiency virus 1, MT4, HIV-infected MT-4 cells, dose achieving 50% protection against cytopathic effect, MTT, OD 540 nm, mean value, read-out: IC50.
Setting [2] is: HIV-infected MT-4 cells, dose achieving 50% protection against cytopathic effect, MTT, OD 540 nm, mean value, read-out: IC50.

Each structure is given as a SMILES string. Where two headings read alike, the source gives them in different places.

Broadly, the IC50 is the concentration at which inhibition is half-maximal. `N#Cc1ccc(Nc2nc(N)nc(Cc3c(Cl)cccc3Cl)n2)cc1` [Compound 1, 4-[[4-amino-6-[(2,6-dichlorophenyl)methyl]-1,3,5-triazin-2-yl]amino]benzonitrile]: the IC50 in the series on HIV-1 (setting [1]) came to 2 nM. Moreover, the SI in the series on HIV-1 was over 42553.

One may read the CC50 as the concentration at which the toxic effect on the cells reaches its halfway point. For the compound `N#Cc1ccc(Nc2nc(N)nc(Cc3ccccc3)n2)cc1` [Compound 2], in the series with HIV-1 (setting [2]), the IC50 was 290 nM. The SI with HIV-1 is over 350. The compound also had a CC50 with MT-4 cells of over 100000 nM.

Turning to `N#Cc1ccc(Nc2nc(N)nc(Cc3ccccc3Cl)n2)cc1` [Compound 3], the IC50 in the series on HIV-1 (setting [2]) was 13 nM. Besides, in the series with HIV-1, the SI is given as 3972. The midpoint of cytotoxicity with MT-4 cells, the CC50, lay at 51600 nM.

Consider `N#Cc1cccc(Nc2nc(N)nc(Cc3c(Cl)cccc3Cl)n2)c1` [Compound 4], for which the IC50 with HIV-1 (setting [2]) stood at 240 nM. Besides, the SI in the series with HIV-1 was determined as 224. This compound returned a CC50 with MT-4 cells of 53600 nM.

Take `N#Cc1ccc(Nc2nc(N)nc(Cc3c(Cl)ccc4[nH]ccc34)n2)cc1` [Compound 8, 4-[[4-amino-6-[(5-chloro-1H-indol-4-yl)methyl]-1,3,5-triazin-2-yl]amino]benzonitrile]: half-maximal inhibition in the series with HIV-1 (Human immunodeficiency virus 1, MT4) (IC50) required 300 nM. The SI in the series with HIV-1 is 4806.

In the case of `N#Cc1ccc(Nc2nc(Cc3c(Cl)cccc3Cl)nc(NCC(N)=O)n2)cc1` [Compound 14, [N-[4-[(4-cyano-phenyl)amino]-6-[(2,6-dichlorophenyl)methyl]-1,3,5-triazin-2-yl]]aminoacetamide], the IC50 in the series with HIV-1 (setting [1]) was determined as 31 nM. Moreover, the SI in the series with HIV-1 is given as 293.

On to `N#Cc1ccc(Nc2nc(Cc3c(Cl)cccc3Cl)nc(NN)n2)cc1` [Compound 15, 4-[[4-[(2,6-dichlorophenyl)methyl]-6-hydrazino-1,3,5-triazin-2yl]amino]benzonitrile], for which the concentration for half-maximal inhibition (IC50) with HIV-1 (setting [1]) turned out to be 61 nM. Also, in the series on HIV-1, the SI is reported as 732.

For the compound `N#Cc1ccc(Nc2nc(Cc3c(Cl)cccc3Cl)nc(NCC(=O)O)n2)cc1` [Compound 16, N-[4-[(4-cyanophenyl)-amino]-6-[(2,6-dichlorophenyl)methyl]-1,3,5-triazin-2-yl]glycine], the IC50 with HIV-1 (setting [1]) is 2800 nM. Besides, the SI in the series with HIV-1 turned out to be 28.

On to `N#Cc1ccc(Nc2nc(Cc3c(Cl)cccc3Cl)nc(NC(=N)N)n2)cc1` [Compound 20, N-[4-[(4-cyanophenyl)amino]-6-[(2,6-dichlorophenyl)methyl]-1,3,5-triazin-2-yl]-guanidine], for which the IC50 with HIV-1 (setting [1]) is over 100000 nM. Further, the SI with HIV-1 was under 1.

`CC(=O)Nc1nc(Cc2c(Cl)cccc2Cl)nc(Nc2ccc(C#N)cc2)n1` [Compound 22, N-[4-[(4-cyanophenyl)amino]-6-[(2,6-dichlorophenyl)methyl)-1,3,5-triazin-2-yl]-acetamide]: the IC50 in the series on HIV-1 (setting [1]) is 14 nM. In the series on HIV-1, the SI is listed as over 6993.

Turning to `N#Cc1ccc(Nc2nc(Cc3c(Cl)cccc3Cl)nc(NCCCNC(N)=O)n2)cc1` [Compound 23, N-[3-[[4-[(4-cyanophenyl)amino]-6-[(2,6-dichlorophenyl)methyl]-1,3,5-triazin-2-yl]amino]propyl]urea], in the series on HIV-1 (setting [1]), the IC50 is 340 nM. In addition, in the series on HIV-1, the SI came out at 106.

For `N#Cc1ccc(Nc2nc(Cc3c(Cl)cccc3Cl)nc(NO)n2)cc1` [Compound 33, 4-[[4-[(2,6-dichlorophenyl)methyl]-6-(hydroxyamino)-1,3,5-triazin-2-yl]amino]benzonitrile], in the series with HIV-1 (setting [1]), the IC50 came to 2 nM. Also, the SI in the series with HIV-1 came out at 6272.

On to `CN(C)c1nc(Cc2c(Cl)cccc2Cl)nc(N(c2ccc(C#N)cc2)c2ccc(C#N)cc2)n1` [Compound 38, 4,4′-[[4-[(2,6-dichlorophenyl)methyl]-6-(dimethylamino)-1,3,5-triazin-2-yl]imino]bisbenzonitrile], for which the concentration for half-maximal inhibition (IC50) in the series on HIV-1 (setting [1]) is over 100000 nM.

For the compound `N#Cc1ccc(Nc2nc(N)nc(Cc3c(F)ccc(F)c3F)n2)cc1` [Compound 52], the IC50 in the series with HIV-1 (setting [2]) amounted to 3 nM. The SI in the series on HIV-1 is reported as over 220.

Turning to `CN(C)C=Nc1nc(Cc2c(Cl)cccc2Cl)nc(Nc2ccc(C#N)cc2)n1` [Compound 62, 4-[[4-[(2,6-dichlorophenyl)methyl]-6-[[(dimethylamino)methylene]amino]-1,3,5-triazin-2-yl]amino]benzonitrile], the IC50 in the series with HIV-1 (setting [1]) stood at 2 nM. The SI in the series on HIV-1 is given as over 41666.
